From patent US20230119355A1, “PHARMACEUTICAL COMPOSITIONS OF A KINASE INHIBITOR” (AURIGENE DISCOVERY TECHNOLOGIES LIMITED, priority 2020, published 2023)
Structures can show the parent of a compound that is named as a salt. Where two headings read alike, the source gives them in different places.

Assays:
[1] = Bioavailability after oral administration; assay type: in vivo
[2] = Water solubility / ionisation at physiological pH; assay type: physicochemical

## Cn1cc(-c2ccc3c(c2)ncn3-c2cc(NS(=O)(=O)C3CC3)cc(-c3ccc(F)cc3F)c2)cn1 [Compound (I), N-(2′,4′-difluoro-5-(5-(1-methyl-1H-pyrazol-4-yl)-1H-benzo[d]imidazol-1-yl)-[1,1′-biphenyl]-3-yl)cyclopropanesulfonamide]
[1]
  bioavailability after oral administration: very low
[2]; physiological pH range
  solubility in water: practically insoluble
[2]; within the physiological pH range
  ionisation state: neutral

## Cn1cc(-c2ccc3c(c2)ncn3-c2cc(NS(=O)(=O)C3CC3)cc(-c3ccc(F)cc3F)c2)cn1 [Compound (I) HCl salt, hydrochloride salt of N-(2′,4′-difluoro-5-(5-(1-methyl-1H-pyrazol-4-yl)-1H-benzo[d]imidazol-1-yl)-[1,1′-biphenyl]-3-yl)cyclopropanesulfonamide]
[1]; listed as Hydrochloride salt forms of compound (I)
  bioavailability after oral administration: improved
[2]; hydrochloride salt forms compared with compound (I)
  water solubility of the salt form: enhanced
